From paper PMC11341359, “Assessing the immunogenicity risk of salmon calcitonin peptide impurities using in silico and in vitro methods” (Frontiers in Pharmacology, 2024)
Bridge positions count the residues as written; N and C are the ends. Ends that are not written are not given here. Peptide text beside a SMILES is read from it.

How the values were obtained:
human donor PBMCs = experiment: In vitro immunogenicity protocol (IVIP) naïve T-cell assay, IFNγ FluoroSpot; assay type: cell-based; details: individual full-length peptides at 20 μg/mL, 14 days, then 48 h IFNγ FluoroSpot; 16 donors; positive: SFC > 50 per 10^6, SI ≥ 2, p < 0.05 vs medium
Experimental: To improve the sensitivity of the T-cell assays, fresh (not frozen) blood samples were obtained from human blood donors for the T-cell assays (internal observations). Specifically, PBMCs were isolated from leukocyte reduction filters obtained from the Rhode Island Blood Center (RIBC) in Providence, RI. To confirm the sufficient breadth of HLA coverage in the donor cohort, high-resolution (4-digit) class II HLA haplotyping of donors was performed at the Transplant Immunology Laboratory at Hartford Hospital in Hartford, CT, using the sequence-specific oligonucleotide method (SSP-PCR). […] supertype alleles were expressed by the donor PBMCs used in the assays reported here (HLA DRB1*0301, *0401, *0701, *1101, *1301, and *1501). The HLA identified for the cohort of subjects used in this study is representative of 81.81% of the HLA alleles expressed by the global population. Forty percent of the donors were female and 60% of the donors were male, and their ages ranged from 17 to 83 years. Donor cohort demographic information and HLA types for each donor are provided in Supplementary Figure S1. To measure the naïve T-cell response to salmon calcitonin and impurity peptides, cells were plated at a density of 2.5 × 10^5 cells per well in 96-well U-bottom cell plates in RPMI 1640 cell culture medium supplemented with IL-2 (10 ng/mL) and IL-7 (20 ng/mL) (Gibco). The cells were incubated with […]®, or a synthetic salmon calcitonin peptide, or individual peptide impurities, at a concentration of 20 μg/mL for 14 days at 37°C/5% CO2, with medium exchanges that include cytokine support (IL-2 and IL-7) on days 4, 7, and 11. A concentration of 20 μg/mL (5.8 μM) was the dose selected for the SCT API and the four selected impurities, following a dose-ranging study performed with […]® to determine the maximum dose at which a T-cell response could be observed with no observed toxicity to the cells. The dose-ranging study was performed following the same protocol as described above. The following control antigens were used in the T-cell assays for each of the PBMC samples: positive controls, keyhole limpet hemocyanin (KLH; Thermo Fisher), and the antigenic peptide pool CEFT (ImmunoSpot). In addition, human serum albumin (HSA; Sigma-Aldrich) was used as a negative control antigen, and phytohemagglutinin (PHA; Thermo Fisher), a T-cell mitogen, was used to confirm T-cell functionality. […] Responses were considered positive if (1) the number of spots was at least twice the background (stimulation index [SI] ≥ 2); (2) there were greater than 50 spot-forming cells (SFCs) per 1.0 × 10^6 PBMCs; and (3) responses were statistically different from the media (Student's t-test). Each of the test articles (SCT API, RLD, or impurity peptide) and each of the positive and negative controls were evaluated in nine replicate wells containing donor PBMCs. Following the 14-day incubation, cells in the nine replicate wells were collected, pooled by the treatment condition, and re-plated in triplicate on a precoated anti-human IFNγ FluoroSpot plate (Mabtech) at a concentration of 1.0 × 10^5 cells per well in the presence of an appropriate test article or control reagent in supplemented RPMI 1640 culture medium. The FluoroSpot plates were incubated for 48 h at 37°C/5% CO2. After 48 h, FluoroSpot plates were developed according to the manufacturer's directions. Spots were counted on an iSpot Spectrum FluoroSpot reading system (AID, Strassberg, Germany) using software 7.0, build 14790. Fluorophore-specific spot parameters were defined using the spot size, spot intensity, and spot gradient. A spot separation algorithm was applied for optimal spot detection. Analysis and counting of spots were performed by unbiased experts at ZellNet Consulting, Inc. (Fort Lee, NJ).

HLA DRB1*1101 = target: T1, HLA DRB1*1101 (Homo sapiens, UniProt P01903+P01911, A100R/A169T/A87E/I96F/K41T/L162R/M171V/P40S/Q125H/Q178H/Q39Y/Q99D/R42S/S66Y/T262R/V115G/W38E); experiment: Class II HLA competition binding assay; details: class by IC50; short assay peptides
T1 construct: incubated overnight to equilibrium with a soluble HLA DR molecule; purchased Benaroya Research Institute, Seattle, Washington
Experimental: (§1) The class II HLA binding assays performed for these studies measure the binding affinity of a target peptide to HLA DRB1*0101, *0301, *0401, *0701, *0901, *1101, *1301, and *1501 in a standardized competition assay. This assay was originally described by [Steere et al. (2006)] and adapted by EpiVax. Previous publications have described the assay in detail ([McMurry et al., 2007]; [Ardito et al., 2011]). Briefly, unlabeled test peptides are incubated overnight to equilibrium with a soluble HLA DR molecule (Benaroya Research Institute, Seattle, Washington) and a biotinylated, allele-specific competitor peptide. The binding reaction is then neutralized, and peptide–HLA complexes are transferred to a 96-well plate coated with the pan-HLA DR antibody, clone L243 (BioLegend), and incubated overnight. The following day, Europium-labeled streptavidin (PerkinElmer, Waltham, MA) is added to identify the peptide–HLA complexes. An indirect measure of binding is determined by time-resolved fluorescence. Each peptide–HLA binding reaction is evaluated in triplicate over a range of seven concentrations. The percent inhibition values at seven distinct concentrations are used to calculate the IC50 value, defined as the concentration at which the test peptide inhibits 50% of the labeled competitor peptide.
(§2) Peptides that bind to the HLA at an IC50 value of 100 nM or less are considered very high-affinity binders. Peptides that bind at IC50 values ranging from 100 nM to 1,000 nM are considered high-affinity binders. Peptides that bind at IC50 values ranging from 1,000 nM to 10,000 nM are considered moderate-affinity binders. Peptides that bind at IC50 values ranging from 10,000 nM to 100,000 nM are considered low-affinity binders, and those with IC50 values ranging from 100,000 nM to 1,000,000 nM are considered negligible-affinity binders. […] We note that these concentrations are specific for the in vitro HLA-binding assay and are used to compare the relative binding affinities of the impurity sequences to the API and independent from the peptide concentrations described for the in vitro T-cell assays described below.

HLA DRB1*0901 = HLA DRB1*0901 (Homo sapiens, UniProt P01903+P01911, A100R/A103E/D57H/D86V/F55Y/F60I/F76Y/I96F/K127E/L162R/M171V/P40D/Q125H/Q99R/R33Q/R42F/S133A/S66N/T210M/V115G/W38K/Y107V/Y59G/Y89S); experiment: Class II HLA competition binding assay; details: short assay peptides (Cys7 replaced with Ser); competition with biotinylated allele-specific peptide, soluble HLA DR, overnight, time-resolved fluorescence, triplicate, seven concentrations
Experimental: as §1, §2

HLA DRB1*0401 = target: T2, HLA DRB1*0401 (Homo sapiens, UniProt P01903+P01911, A100K/A169T/F76Y/I96L/K127E/L162R/M171V/N62H/P40V/Q125Y/R42H/S133A/S149N/S66Y/V115G/V209L/W38E); experiment: Class II HLA competition binding assay; details: short assay peptides (Cys7 replaced with Ser); competition with biotinylated allele-specific peptide, soluble HLA DR, overnight, time-resolved fluorescence, triplicate, seven concentrations
T2 construct: incubated overnight to equilibrium with a soluble HLA DR molecule; purchased Benaroya Research Institute, Seattle, Washington
Experimental: as §1, §2

HLA DRB1*0101 = target: T3, HLA DRB1*0101 (Homo sapiens, UniProt P01903+P01911, A100R/D57E/F55L/F60I/F76Y/I96L/L162R/M171V/P40L/Q125E/R42F/V115G/Y59C); experiment: Class II HLA competition binding assay; details: short assay peptides (Cys7 replaced with Ser); competition with biotinylated allele-specific peptide, soluble HLA DR, overnight, time-resolved fluorescence, triplicate, seven concentrations; unit not given
T3 construct: incubated overnight to equilibrium with a soluble HLA DR molecule; purchased Benaroya Research Institute, Seattle, Washington
Experimental: as §1, §2

HLA DRB1*0301 = target: T4, HLA DRB1*0301 (Homo sapiens, UniProt P01903+P01911, A100K/A102G/A103R/A169T/F55Y/I96L/K41T/L162R/M171V/P40S/Q125H/Q178H/Q39Y/R42S/S66N/T106N/T262R/W38E/Y61H); experiment: Class II HLA competition binding assay; details: short assay peptides (Cys7 replaced with Ser); competition with biotinylated allele-specific peptide, soluble HLA DR, overnight, time-resolved fluorescence, triplicate, seven concentrations; unit not given
T4 construct: incubated overnight to equilibrium with a soluble HLA DR molecule; purchased Benaroya Research Institute, Seattle, Washington
Experimental: as §1, §2

HLA DRB1*1501 = target: T5, HLA DRB1*1501 (Homo sapiens, UniProt P01903+P01911); experiment: Class II HLA competition binding assay; details: class by IC50; short assay peptides
T5 construct: incubated overnight to equilibrium with a soluble HLA DR molecule; purchased Benaroya Research Institute, Seattle, Washington
Experimental: as §1, §2

Percentage of Responding Donors (human donor PBMCs) [%] | Responding Donors (human donor PBMCs) | binding affinity class, HLA DRB1*1101 (HLA DRB1*1101) | IC50, HLA DRB1*0901 (HLA DRB1*0901) | IC50, HLA DRB1*0401 (HLA DRB1*0401) | IC50, HLA DRB1*0101 (HLA DRB1*0101) | IC50, HLA DRB1*0301 (HLA DRB1*0301) | binding affinity class, HLA DRB1*1501 (HLA DRB1*1501) | Compound
56 | 9 | – | – | – | – | – | – | CSNLSTCVLGKLSQELH (Ac-K) LQTYPRTNTGSGTP (disulfide) [06-LYS-AC18_SCT_18X, full-length SCT impurity, acetylation of lysine 18]
– | – | negligible affinity | no binding | no binding | no binding | no binding | moderate affinity | CC(C)C[C@H](NC(=O)[C@H](CCCCN)NC(=O)[C@@H](N)Cc1c[nH]cn1)C(=O)N[C@@H](CCC(N)=O)C(=O)N[C@H](C(=O)N[C@@H](Cc1ccc(O)cc1)C(=O)N1CCC[C@H]1C(=O)N[C@@H](CCCNC(=N)N)C(=O)N[C@H](C(=O)N[C@H](C(=O)NCC(=O)N[C@@H](CO)C(=O)NCC(=O)N[C@H](C(=O)O)[C@@H](C)O)[C@@H](C)O)[C@@H](C)O)[C@@H](C)O [DES-ASN26_SCT(17-31)] (H-HKLQTYPRTTGSGT-OH; N-terminus and C-terminus assumed)
63 | 10 | – | – | – | – | – | – | CSNLSTCVLGKLSQELHKLQTYPRTNTGGSGTP (disulfide 1-7 (inferred)) [12_ENDO-GLY28_SCT, full-length SCT impurity, insertion of glycine at position 28]

Compound | Percentage of Responding Donors (human donor PBMCs) [%] | Responding Donors (human donor PBMCs) | binding affinity class, HLA DRB1*1101 (HLA DRB1*1101) | IC50, HLA DRB1*0901 (HLA DRB1*0901) | IC50, HLA DRB1*0401 (HLA DRB1*0401) | IC50, HLA DRB1*0101 (HLA DRB1*0101) | IC50, HLA DRB1*0301 (HLA DRB1*0301) | binding affinity class, HLA DRB1*1501 (HLA DRB1*1501)
CSNLSTCVLGKLSQELHKLETYPRTNTGSGTP (disulfide) (disulfide 1-7 (inferred)) [07_Q20E_SCT, full-length SCT impurity, glutamine 20 deamidated to glutamic acid] | 56 | 9 | – | – | – | – | – | –
